Test results as given in paper PMC8583417, “Evaluation of the Antimicrobial Efficacy of N-Acetyl-L-Cysteine, Rhamnolipids, and Usnic Acid—Novel Approaches to Fight Food-Borne Pathogens” (International Journal of Molecular Sciences, 2021).

Key:
E. coli 693/17 = test: MIC for planktonic cell growth (A625nm); type: cell-based, Escherichia coli; conditions: for MICPC80: ≥80% inhibition, 24 h
Description: (§1) Ten concentrations of NAC, RLs, and UA were tested to determine the minimum inhibitory concentration for planktonic growth, and subsequently, the six highest concentrations were applied on preformed biofilms to evaluate the biofilm eradication ability of the compounds. MIC was defined as the lowest substance concentration able to inhibit at least 80% of microbial growth (MICPC80 for planktonic cells, MICBC80 for further growth of biofilm cells), inhibit 80% of metabolic activity (MICBM80 for biofilm metabolic activity, MICMPB80 for metabolic activity of preformed biofilm), prevent biofilm formation by at least 80% (MICBF80 for biofilm formation), or reduce a preformed biofilm by at least 80% (MICBR80 for biofilm reduction). The results of MICs are summarized in Table 1 (planktonic cells) and Table 2 (biofilm-associated cells).
(§2) The determination of MICs was performed according to Chlumsky et al.. Briefly, 96-well flat-bottomed microtiter plates were inoculated with 75 µL (for biofilm formation) or 100 µL (for preformed biofilm) of bacterial suspension (A625nm 0.08 to 0.1) in technical triplicates and were then carefully mixed with the dilution series of the test substances (24 h cultivation at 25 °C for S. Infantis, 37 °C for other strains) or were directly cultivated to preform biofilms (18 h). For a positive control of bacterial growth, the inoculum was mixed with a pure sterile medium. Furthermore, the sterile medium was included in the plate as a marker of potential microbial contamination. To evaluate planktonic cells growth (MICPC80) and further growth of biofilm cells (MICBC80), the optical density of the content of the microtiter plates was measured spectrophotometrically at 625 nm before and after 24 h (for biofilm formation) of cultivation or before and after additional 20 h incubation with the tested compound (for preformed biofilm). The difference of A625nm was considered as a measure of the ability of cells to grow in the presence of the tested substances. To evaluate the inhibition of biofilm formation (MICBF80) and reduction in preformed biofilms (MICBR80), biomass was quantified using crystal violet staining, and its metabolic activity (MICBM80 and MICMPB80) was estimated by using the MTT (thiazyl tetrazolium bromide, Sigma-Aldrich, USA) reduction assay, both measured spectrophotometrically at 595 nm.
(§3) All inhibitions were calculated using the formula of Chlumsky et al. below (Equation (1)):(1) A625(595)nm inhibition (%)=A625(595)nm (control) – A625(595)nm(natural substance)/A625(595)nm (control)× 100 where A625(595)nm (control) is the absorbance of bacterial suspension/biofilm itself, and A625(595)nm(natural substance) is the absorbance of the bacterial suspension/biofilm with the added natural substance (NAC, RLs, and UA).
(§4) When the minimum inhibitory concentration could not be determined, the MIC was established as >the highest tested concentration for NAC, RLs, and UA.

E. coli 683/17 = test: MIC for planktonic cell growth (A625nm); type: cell-based, Escherichia coli; conditions: for MICPC80: ≥80% inhibition, 24 h
Description: as §1, §2, §3, §4

[1] = test system: S. Enteritidis ATCC 13076; test: CLSM analysis, biofilm removal (preformed biofilm); type: cell-based, Salmonella enterica Enteritidis; conditions: 20 h exposure, mean ± SD; for Thickness (µm) subCBM80: substance at subinhibitory concentration
Description: Biofilm prevention and removal analyses were performed using previously determined minimum inhibitory and subinhibitory concentrations for metabolic activity (MICBM80, subCBM80; MICMPB80, subCMPB80) of NAC, RLs, and UA specific for each tested strain. Selected concentrations were used to evaluate the inhibition of biofilm formation (biofilm prevention) and the reduction in previously formed biofilms (biofilm removal) for the same set of microorganisms, with the exception of S. Infantis, which was excluded from the analysis due to its inability to form biofilm in the selected microtiter plate. Biofilm prevention and removal were observed using CLSM with specific staining to distinguish between live and membrane-compromised cells. Images were analyzed to evaluate (i). the total volume of the biomass, (ii). ratios of live and membrane-compromised cells, and (iii). to calculate biofilm volume reduction for individual organisms after the respective treatment types. The total biofilm volume was normalized by the area of the well and expressed as an average biofilm thickness. Complete data are provided in Supplementary Materials (Tables S1–S8).
At first, bacterial suspensions were cultivated in microtiter plates to produce overnight biofilms (18 h). […] cells were then washed out, and the remaining biofilms were further cultivated for an additional 20 h with selected compounds. Following biofilm cultivation, biomass was observed using CLSM with live/membrane-compromised cell staining. Biomass images from biofilm removal treatments were similar to results from biofilm prevention, where biomass was highly diversified across the bacterial species and strains. Visually, biomass images were fairly consistent within the quadruplicates for each tested organism. Non-treated biofilms of S. aureus contained consistent biomass spread across the well (S. aureus 816) or grown around the edges (S. aureus 1241). […]
For both inhibition and reduction of biofilms, overnight cultures from BHI were diluted in TSB + 1% Glc to reach an absorbance of 0.08 to 0.1 at 625 nm. […]

CC(=O)c1c(O)c(C)c(O)c2c1OC1=CC(=O)C(C(C)=O)C(=O)C12C (single isomer, unassigned; (+)) [UA, (+)-usnic acid]
maximal achieved inhibition (MICPC80 not reached) (E. coli 693/17; within tested concentrations): 40%
MICPC80 (E. coli 693/17): > 31.3 µg/mL
maximal achieved inhibition (MICPC80 not reached) (E. coli 683/17; within tested concentrations): 20%
MICPC80 (E. coli 683/17): > 31.3 µg/mL
Thickness (µm) subCBM80 [1]: 203 ± 19.8 µm

CC(=O)N[C@@H](CS)C(=O)O [NAC, N-Acetyl-L-cysteine]
MICPC80 (E. coli 693/17): 6250 µg/mL
MICPC80 (E. coli 683/17): 3130 µg/mL
Thickness (µm) MICBM80 ([1]; substance at its MIC): 212 ± 16.6 µm
Thickness (µm) subCBM80 [1]: 229 ± 54.9 µm
